# Results published in patent US6706276B2, “Compositions and methods for trapping and inactivating pathogenic microbes and spermatozoa” (Rush-Presbyterian-St. Luke's Medical Center, priority 2000, dated 2004).
# Marks after values point to notes of the source that are not given here.
# Tests used:
# [1] = system: vaginal/cervical epithelial and other cells; conditions: in vitro; cited from earlier work
# HSV-2 strain 186 = assay: Genital herpes infection in the mouse model; format: in vivo, mice; conditions: Table IV, 20 sec before virus inoculation; for Protected Against Disease, Number / Protected Against Infection, Number: 15 inoculated
substance,measurement,setting,value
nonoxynol-9 [N-9],lowest concentration injuring cells,[1],about 0.0005%
same,"Protected Against Disease, %",HSV-2 strain 186; N-9 5% in PBS,40^d %
same,"Protected Against Infection, %",HSV-2 strain 186; N-9 5% in PBS,13%
same,"Protected Against Disease, Number",HSV-2 strain 186; N-9 5% in PBS,6
same,"Protected Against Infection, Number",HSV-2 strain 186; N-9 5% in PBS,2
same,"Protected Against Disease, %",HSV-2 strain 186; N-9 50% in PBS,100^c %
same,"Protected Against Infection, %",HSV-2 strain 186; N-9 50% in PBS,93^c %
same,"Protected Against Disease, Number",HSV-2 strain 186; N-9 50% in PBS,15
same,"Protected Against Disease, %",HSV-2 strain 186; N-9 100% in PBS,100^c %
same,"Protected Against Infection, %",HSV-2 strain 186; N-9 100% in PBS,93^c %
same,"Protected Against Disease, Number",HSV-2 strain 186; N-9 100% in PBS,15
same,"Protected Against Infection, Number",HSV-2 strain 186; N-9 100% in PBS,14
same,"Protected Against Infection, Number",HSV-2 strain 186; N-9 in PBS,14
